Patent publication US4350698A, “Antiallergic imidosulfamides” (SmithKline Corporation, priority 1981, dated 1982)

System: slow reacting substance of anaphylaxis (SRS-A)
Assay: Inhibition of SRS-A induced contraction of guinea pig ileum
Assay type: cell-based
Conditions: Cavia porcellus, 0.25 h; compound concentration 5×10^-6 M; partially purified SRS-A from guinea pig lung at 40 μg/ml; isolated guinea pig ileum; read-out: percent antagonism of SRS-A induced contraction
Description: The SRS-A antagonist activity of the compounds of this invention is measured by the ability of the active medicament to inhibit SRS-A induced contraction of guinea pig ileum. In this test system, sections of ileum are resected from guinea pigs and placed in 5 ml. tissue baths containing a modified Tyrode's solution. One end of the tissue is fixed to a glass tissue holder, the other is connected to a force-displacement transducer and the tissue is placed under a tension of 500 mg. Isometric tissue contractions are recorded on a six channel polygraph. Baths are constantly aerated with 95% O2 -5% CO2. After a 20 minute stabilization period a concentration of the appropriate agonist which provides a contraction height of 60-80% of the maximum obtainable to that agonist (as determined from full sequential concentration-response curves in separate experiments) is added to the tissue bath and the response recorded. The procedure is repeated until reproducible responses are obtained. […] Percent inhibition produced by the test compound is calculated by subtracting the mean percentage change in control tissue from the mean percentage change in tissues exposed to the test compound. Additional compounds are then evaluated as long as the tissue remains reproducibly responsive to the agonist. […]

O=C(NS(=O)(=O)N1CCc2ccc(Cl)c(Cl)c2C1)N1CCc2ccc(Cl)c(Cl)c2C1 [Compound 1, N-(7,8-Dichloro-1,2,3,4-tetrahydroisoquinolin-2yl)Carbonyl-7,8-dichloro-1,2,3,4-tetrahydroisoquinoline-2-sulfonamide]
inhibition at 5 µM: 46%
